Several values for one entry are separate records, joined by “and”; a condition that tells them apart may be missing. Equal entries are not always repeated.
How the values were obtained:
[1] = test system: phosphorylated ERK in MDA-MB-231 breast cancer cells; assay: Generation of EC50 data: Western blotting for phosphorylated ERK in EGF-stimulated cells; format: cell-based
Protocol: Effects of compounds in the cell were determined by Western blotting for phosphorylated ERK. MDA-MB-231 breast cancer cells were plated in a 48 well plate at 20,000 cells per well and grown in a 37° humidified CO2 incubator. The following day, the growth media (DMEM+10% fetal bovine serum) was removed and replaced with starve media (DMEM+0.1% fetal bovine serum). Cells were incubated in the starve media for sixteen hours and then treated with a range of compound concentrations for thirty minutes. After incubation with compound, cells were stimulated with 100 ng/ml EGF for five minutes. The cells were then lysed and analyzed by Western blot using a monoclonal antibody raised to phosphorylated ERK. The signal was amplified using a secondary antibody conjugated to a near-IR dye and detected on a Licor Odyssey scanner.

MDA pERK = MDA pERK ELISA; format: cell-based
[2] = test system: orthotopic Hep3B2.1-7 human hepatic carcinoma; assay: Growth response of orthotopic Hep3B tumors in nude mice; format: in vivo, BALB/c nu/nu mice
Protocol: Female BALB/c nu/nu mice (University of Adelaide, Waite Campus, SA, Australia), aged 10-14 weeks, with a body weight range: of 19.1-29.94 g (mean 22.95 g) were used for the study. The mice were divided into 6 Study groups (4 treatment groups and 2 control groups) as follows: • Number of Mice per Group: 10 in Groups 1 to 5 inclusive • 15 in ‘Take-Rate’ Control Group (Group 6)
Hep3B human hepatic carcinoma cells (Passage 2 from working stock VP-Stock 353) were cultured in RPMI1640 cell culture medium, which was supplemented with 10% FBS and penicillin-streptomycin (501 U/mL final concentration). The cells were harvested by trypsinisation, washed twice in HBSS and counted. The cells were then resuspended in HBSS:Matrigel (1:1, v/v) and adjusted to a final volume containing 1×10^8 cells/mL. Prior to inoculation, the incision site was liberally swabbed with alcohol and an incision made through the abdominal wall to expose the liver. The needle was introduced through the surface of the liver where 10 μL of cells (1×10^6 cells) were discharged. The needle was held in this position for approximately 30 seconds to allow the Matrigel® to polymerize in order to avoid leakage of tumor cells into the abdominal cavity.
Treatment commenced 14 days post-inoculation. On Day 7 of the study (21 days post-inoculation), all mice from the ‘Take-Rate’ control group were culled and the livers visually assessed for the presence of tumors.
A stock solution was prepared weekly and stored at 4° C. Dosing solutions were prepared on each day of administration. […] The compound was administered at doses of 2, 10 and 50 mg/kg.
Liver and tumor wet weight were measured when each were excised post-mortem on the termination day of the study. At the termination of the study, livers were excised from all mice in each study group and weighed. The number of visible tumors, if present, was counted. These tumors were removed from the liver and weighed.
A One-Way Analysis of Variance (ANOVA) (All Pairwise Multiple Comparison Procedure and Multiple Comparison versus Control Group) was performed on liver weight and tumor weight data at the end of the study. […] The same statistical analyses were performed on the data for the tumor-bearing mice in the study.

[3] = test system: orthotopic HT-29 human colorectal adenocarcinoma; assay: Growth response of orthotopic HT-29 colon tumors in nude mice; format: in vivo, BALB/c nu/nu mice
Protocol: Female BALB/c nu/nu mice (University of Adelaide, Waite Campus, SA, Australia), aged 7-12 weeks, with a body weight range: of 16.58-25.39 g (mean 21.52 g) were used for the study. The mice were divided into 6 Study groups (4 treatment groups and 2 control groups) as follows: • Number of Mice per Group: 10 in Groups 1 to 5 inclusive • 9 in ‘Take-Rate’ Control Group (Group 6)
HT-29 human colorectal adenocarcinoma cells (Passage 4 from working stock VP-Stock 325) were cultured in RPMI1640 cell culture medium, which was supplemented with 10% FBS and penicillin-streptomycin (501 U/mL final concentration). The cells were harvested by trypsinisation, washed twice in HBSS and counted. The cells were then resuspended in HESS and adjusted to a final volume containing 2×10^8 cells/mL. Prior to inoculation, the incision site was liberally swabbed with alcohol and an incision made through the abdominal wall to expose the caecum wall. The needle was introduced through the surface of the caecum wall where 5 μL of cells (1×10^6 cells) were discharged.
A stock solution was prepared weekly and stored at 4° C. Dosing solutions were prepared on each day of administration.
Caecum and tumor wet weight were measured when each were excised post-mortem on the termination day of the study. At the termination of the study, the caecum was excised from all mice in each study group and weighed with the tumors intact. The tumors were then excised from the caecum and weighed.
A two-sample t-test was used to determine the significance in body weight change within a treatment group between Day 0 and the termination day of the study. […] In these groups, a two-sample t-test was used to determine the significance in body weight change within a treatment group between Day 0 and the final treatment day of the study, and between the last treatment day and the termination day of the study.
A One-Way Analysis of Variance (ANOVA) (All Pairwise Multiple Comparison Procedure and Multiple Comparison versus Control Group) was performed on the caecum weight and tumor weight data at the end of the study.

[4] = Homo sapiens, EC50 classes per legend (pERK, MDA-MB-231 cells), classes D and F also cite IC50
[5] = 5FU 75 mg/kg i.v. Day 0, 7 and 14, tumor-bearing mice
[6] = 5FU 75 mg/kg, individual animals, listed as 5FU
[7] = 5FU 75 mg/kg, mice surviving to final day

| SMILES | EC50 [1, 4] | other results |
| --- | --- | --- |
| O=S(=O)(Nc1ccc(F)c(F)c1Nc1ccc(I)cc1F)c1ccccc1F [Example 1015] | > 100 nM | – |
| O=S(=O)(Nc1c(F)cc(F)c(F)c1Nc1ccc(I)cc1F)C1CC1 [Example 1004] | 15 to 100 nM | – |
| CS(=O)(=O)Nc1ccc(-c2ccc(Nc3c(NS(=O)(=O)C4CC4)ccc(F)c3F)c(F)c2)cc1 [Example 0499271] | – | EC50 (MDA pERK): > 200 nM |
| COc1cc(F)c(F)c(Nc2ccc(I)cc2F)c1NS(=O)(=O)C1(C[C@@H](O)CO)CC1 [Example 1022] | 2 to 15 nM | – |
| CC(=O)c1cccc(-c2ccc(Nc3c(NS(=O)(=O)C4CC4)ccc(F)c3F)c(F)c2)c1 [Example 0499266] | – | EC50 (MDA pERK): > 200 nM |
| O=S(=O)(Nc1ccc(F)c(F)c1Nc1ccc(I)cc1F)C1CC1 [Example 1001] | < 2 nM | – |
| COc1cc(F)c(F)c(Nc2ccc(I)cc2F)c1NS(=O)(=O)C1CCC1 [Example 1025] | 2 to 15 nM | – |
| O=S(=O)(Nc1ccc(F)c(F)c1Nc1ccc(I)cc1F)C1CCCCC1 [Example 1008] | 15 to 100 nM | – |
| CCCCS(=O)(=O)Nc1ccc(F)c(F)c1Nc1ccc(I)cc1F [Example 1003] | 15 to 100 nM | – |
| COC(=O)c1sccc1S(=O)(=O)Nc1ccc(F)c(F)c1Nc1ccc(I)cc1F [Example 0620926] | – | EC50 (MDA pERK): > 200 nM |
| COc1cc(F)c(F)c(Nc2ccc(I)cc2F)c1NS(=O)(=O)C1(C[C@H](O)CO)CC1 [Eg. 98 (S isomer)] | – | EC50 ([1]; EC50 class): < 2 nM |
| COc1cc(F)c(F)c(Nc2ccc(I)cc2F)c1NS(=O)(=O)C1(C[C@H](O)CO)CC1 [Example 1021] | < 2 nM | – |
| O=S(=O)(Nc1ccc(F)c(F)c1Nc1ccc(-c2ccncc2)cc1F)C1CC1 [Example 0497688] | – | EC50 (MDA pERK): > 200 nM |
| COc1cc(F)c(F)c(Nc2ccc(I)cc2F)c1NS(=O)(=O)C1CC1 [Example 1013] | 2 to 15 nM | – |
| CCN(C)CCS(=O)(=O)Nc1ccc(F)c(F)c1Nc1ccc(I)cc1F [Example 0621029] | – | EC50 (MDA pERK): 100 to 200 nM |
| COc1cc(F)c(F)c(Nc2ccc(I)cc2F)c1NS(=O)(=O)C1(CCO)CC1 [Example 1026] | < 2 nM | – |
| O=S(=O)(Nc1ccc(F)c(F)c1Nc1ccc(I)cc1F)c1cccs1 [Example 1005] | 15 to 100 nM | – |
| COc1cc(F)c(F)c(Nc2ccc(C)cc2C)c1NS(C)(=O)=O [Example 1010] | < 2 nM | – |
| CC(C)(C)S(=O)(=O)Nc1ccc(F)c(F)c1Nc1ccc(I)cc1F [Example 1009] | 15 to 100 nM | – |
| Cc1cc(I)ccc1Nc1c(NS(=O)(=O)C2CC2)ccc(F)c1F [Example 1017] | 2 to 15 nM | – |

| SMILES | EC50 [1, 4] | other results |
| --- | --- | --- |
| O=S(=O)(Nc1ccc(F)c(F)c1Nc1ccc(I)cc1F)C1(CCO)CC1 [Example 1027] | < 2 nM | – |
| COCCOc1cc(F)c(F)c(Nc2ccc(I)cc2F)c1NS(=O)(=O)C1(CC(O)CO)CC1 (stereo not shown) [Example 1030] | 15 to 100 nM | – |
| O=S(=O)(Nc1ccc(F)c(F)c1Nc1ccc(I)cc1F)C1(CC(O)CO)CC1 (racemic) [Example 1018] | < 2 nM | – |
| O=S(=O)(Nc1c(F)cc(F)c(F)c1Nc1ccc(I)cc1F)C1(C[C@H](O)CO)CC1 [Example 1023] | 2 to 15 nM | – |
| COc1cc(F)c(F)c(Nc2ccc(I)cc2F)c1NS(=O)(=O)C1(CC(CO)CO)CC1 [Example 1028] | < 2 nM | – |
| COc1cc(F)c(F)c(Nc2ccc(I)cc2F)c1NS(=O)(=O)C1(CC(O)CO)CC1 (racemic) [Eg. 97 (Racemic), N-(3,4-difluoro-2-(2-fluoro-4-iodophenylamino)-6-methoxyphenyl)-1-(2,3-dihydroxypropyl)cyclopropane-1-sulfonamide] | – | EC50 ([1]; EC50 class): < 2 nM |
| O=c1[nH]cc(F)c(=O)[nH]1 [5-Fluorouracil, reference compound] | – | No. of Mice with Tumors (out of 10) ([2]; 5FU 75 mg/kg i.v. Day 0, 7 and 14): 4; Average Liver Weight [2, 5]: 1.217 g; Average Tumor Weight [2, 5]: 0.143 g; average weight of the tumors vs Vehicle Control ([2]; tumor-bearing mice, 75 mg/kg i.v. once per week): significantly different; average weight of the liver vs Vehicle Control ([2]; tumor-bearing mice, 75 mg/kg i.v. once per week, p<0.05): significantly different; weight of the caecum and HT-29 tumors ([3]; 75 mg/kg i.v. once per week): no effect; Caecum Weight [3, 6]: 0.355 g and 0.199 g and 0.360 g and 0.284 g and 0.421 g and 0.706 g and 0.415 g and 0.327 g and 0.237 g and 0.377 g; Tumour Weight [3, 6]: 0.245 g and 0.001 g and 0.000 g (3×) and 0.010 g and 0.329 g and 0.130 g and 0.079 g and 0.003 g; Average Caecum Weight [3, 7]: 0.391 g; Average Tumour Weight [3, 7]: 0.069 g |
| COc1cc(F)c(F)c(Nc2ccc(I)cc2F)c1NS(=O)(=O)C1(C[C@@H](O)CO)CC1 [Eg. 99 (R isomer), N—(R)-(3,4-difluoro-2-(2-fluoro-4-iodophenylamino)-6-methoxyphenyl)-1-(2,3-dihydroxypropyl)cyclopropane-1-sulfonamide] | – | EC50 ([1]; EC50 class): 2 to 15 nM |
| CS(=O)(=O)Nc1ccc(F)c(F)c1Nc1ccc(I)cc1F [Example 1000] | < 2 nM | – |
| CC1(S(=O)(=O)Nc2ccc(F)c(F)c2Nc2ccc(I)cc2F)CC1 [Example 1012] | 2 to 15 nM | – |
| CCc1cc(F)c(F)c(Nc2ccc(I)cc2F)c1NS(=O)(=O)C1(CC(O)CO)CC1 (stereo not shown) [Example 1029] | 15 to 100 nM | – |
| COc1cc(F)c(F)c(Nc2ccc(I)cc2F)c1NS(=O)(=O)C1(CC(O)CO)CC1 (racemic) [Example 1019] | < 2 nM | – |
| O=S(=O)(Nc1c(F)cc(F)c(F)c1Nc1ccc(I)cc1F)C1(CC(O)CO)CC1 (racemic) [Example 1020] | < 2 nM | – |
| O=S(=O)(Nc1ccc(F)c(F)c1Nc1ccc(I)cc1F)C1CCCC1 [Example 1007] | 15 to 100 nM | – |
| O=S(=O)(Nc1c(F)cc(F)c(F)c1Nc1ccc(I)cc1F)C1(C[C@@H](O)CO)CC1 [Example 1024] | 2 to 15 nM | – |
| Cc1ccc(S(=O)(=O)Nc2ccc(F)c(F)c2Nc2ccc(I)cc2F)s1 [Example 1011] | 15 to 100 nM | – |
| O=S(=O)(Nc1ccc(F)c(F)c1Nc1ccc(I)cc1F)c1ccsc1 [Example 1016] | 15 to 100 nM | – |
| CC(C)S(=O)(=O)Nc1ccc(F)c(F)c1Nc1ccc(I)cc1F [Example 1002] | 2 to 15 nM | – |
| O=S(=O)(Nc1ccc(F)c(F)c1Nc1ccc(I)cc1F)c1ccco1 [Example 1006] | 15 to 100 nM | – |
| O=S(=O)(Nc1ccc(F)c(F)c1Nc1ccc(I)cc1F)c1ccccc1 [Example 1014] | 15 to 100 nM | – |
